Source: patent US6777193B1, “Methods for diagnostic and/or treatment of antiphospholipids antibodies-related diseases, and devices” (Escuela Nacional de Ciencias Biologicas, del Instituto …, priority 2000, dated 2004)

Key:
Ag4 mouse myeloma cells [1] = assay: Lipidic particles reversion in cells; assay type: cell-based; details: chlorpromazine 0.2 mM for 30 min before stabilizer drug
Method: (§1) Examples 7 and 7A were repeated using as antigens egg-yolk phosphatidylcholine:phosphatidate (2:1 molar ratio) liposomes, in Tris-NaCl buffer (10 mM, 1 mM) pH 7, and containing 0.1 μmol of phosphatidate, or Ag4 mouse myeloma cells. […] Stabilizer drugs were used at the concentrations used in Example 7A.

[2] = tested on: egg-yolk phosphatidylcholine:phosphatidate (2:1 molar ratio) liposomes; assay: Stabilization of liposomal membranes (liposomal cytofluorometry, SSC/FSC); details: without chlorpromazine
[3] = tested on: egg-yolk phosphatidylcholine:phosphatidate (2:1 molar ratio) liposomes; assay: as above; details: for concentration effective in stabilizing lipidic bilayers: blocks lipidic particles induced by chlorpromazine at 0.2 mM and 0.6 mM; for lipidic particles formation and liposomal aggregation, simultaneous incubation with chlorpromazine: liposomes incubated simultaneously with chlorpromazine and stabilizer drug; for reaction of stabilized liposomes with H308 monoclonal antibody: liposomes incubated with chlorpromazine and stabilizer drug
Method: In relation to the stabilization of membranes with drugs that avoid the formation of lipidic particles in liposomal model membranes or in cellular membranes, which in turn avoid the subsequent union of anti-lipidic particles antibodies, the studies were carried out with liposomal or cellular antigens using the cytofluorometry method. In a favorite modality this method includes the following steps:
A) A first step of incubation, in which the antigen suspension, liposomes or cells, are incubated with a drug that stabilizes its lipidic bilayers, this drug being used at a concentration of 0.1 up to 100 mM, the obtained mixture is incubated for 0.25 to 2 h at a temperature between 35 and 40° C.
These studies were carried out with a modification in the liposomal cytofluorometry method with liposomes made from egg-yolk phosphatidylcholine:phosphatidate (2:1 molar ratio) in Tris-NaCl buffer (10 mM, 1 mM) pH 7, containing 0.1 μmol of phosphatidate, and treated with 0.2 mM chlorpromazine to induce lipidic particles formation, as antigens.
Liposomal preparations were incubated for 30 min at room temperature and were used as antigens. The reaction of these stabilized liposomes with H308 monoclonal antibody was analyzed by the liposomal cytofluorometry method as was described in Example 2A, in a FACSCalibur Flow Cytometer equipped with a single 488 nm argon laser beam (Beckton Dickinson).
Relative size and/or liposomal aggregation were analyzed in the FSC channel and the granularity or liposomal bilayers complexity in the SSC channel. Analysis of 10,000 liposomes was made in a logarithmic mode with the following detectors: FSC in E00, with a detector compensation threshold of 52 V and SSC of 401 V (Baeza et al., op. cit., 1995). The obtained data were analyzed with the Cellquest program (Beckton Dickinson).

[4] = tested on: egg-yolk phosphatidylcholine:phosphatidate (2:1 molar ratio) liposomes; assay: Lipidic particles reversion in liposomes; details: chlorpromazine 0.2 mM for 30 min before stabilizer drug
Method: as §1

Ag4 mouse myeloma cells [5] = assay: Stabilization of cellular membranes (cytofluorometry); assay type: cell-based; details: chlorpromazine 0.2 mM plus stabilizer drug; for development of lipidic particles in Ag4 cellular membranes: 30 min
Method: The reaction of these stabilized Ag4 mouse myeloma cells with […] monoclonal antibody was analyzed by the cytofluorometry method in a FACSCalibur Flow Cytometer equipped with a single […] argon laser beam (Beckton Dickinson). Relative size and/or Ag4 mouse myeloma cells aggregation were analyzed in the FSC channel and the granularity or cellular membranes complexity in the SSC channel. Analysis of 10,000 […] mouse myeloma cells was made with the following detectors: FSC in […] in lineal mode with an amplifier gain of 2 V, with a detector compensation threshold of 52 V, and SSC of 250 V. The obtained data were analyzed with the Cellquest program (Beckton Dickinson).

BALB/c female mice [6] = assay: Treatment of the pathology induced by H308 monoclonal antibody in mice; assay type: in vivo, mouse; details: for therapeutically effective quantity: of body weight, BALB/c female mice given H308
Method: H308 monoclonal antibody was administered by intraperitoneal injection of 1 μg each week during two months to BALB/c female mice, and simultaneously the glycerolphosphorylcholine hapten was administered at 2.5 mg/Kg, of body weight, doses by intravenous injection each 24 hs, for 2-months.
Spermidine was administered, as chlorhydrate, in a dose of 1 mg/Kg, of body weight, by intraperitoneal injection each 24 hs, during two months.

BALB/c female mice [7] = assay: Induction of anti-lipidic particles antibodies and pathology in immunized/treated mice; assay type: in vivo, mouse; details: for pathology developed in BALB/c female mice: after immunization or treatment as in Examples 4A-4C; for immunized BALB/c female mice that produced anti-lipidic particles antibodies: intramuscular, chlorpromazine 3 mg/Kg or procainamide 10 mg/Kg each 24 hs for 2-months
Method: Ten, 2-months age, BALB/c female mice were immunized by intrasplenic injection of 100 μg of egg-yolk phosphatidylcholine:phosphatidate liposomes (2:1 molar ratio) in Tris-NaCl buffer (10 mM, 1 mM) pH 7, containing 0.1 μmol of phosphatidate, and treated with MnCl2 5 mM to induce lipidic particles formation. Intrasplenic immunization was repeated 2-weeks later by the method described by Nilsson et al. (op. cit. 1987). Additionally, BALB/c female mice were intraperitoneally injected with the same liposomes dose 2-weeks later, then they were boosted 4-times at 2-weeks intervals.
After seven days of the last immunization female mice were bled from the orbital sinus to analyze the presence of anti-lipidic particles antibodies in the obtained sera. Using this immunization procedure, 60% of the immunized BALB/c female mice produced anti-lipidic particles antibodies.
Ten, 2-months age, BALB/c female mice were immunized by intrasplenic injection of 100 μg of egg-yolk phosphatidylcholine:phosphatidate liposomes (2:1 molar ratio) in Tris-NaCl buffer (10 mM, 1 mM) pH 7, containing 0.1 μmol of phosphatidate, and treated with the lipidic particles inducer drug procainamide at a concentration of 8 mM. Immunization was carried out as it was indicated in Example 4. After seven days of the last immunization female mice were bled from the orbital sinus to analyze the presence of anti-lipidic particles antibodies in the obtained sera. Using this immunization procedure, 70% of the immunized BALB/c female mice produced anti-lipidic particles antibodies.
Ten, 2-months age, BALB/c female mice were immunized by intramuscular injection of the lipidic particles inducer drugs chlorpromazine or procainamide, using 3 mg/Kg, of body weight, for chlorpromazine and 10 mg/Kg, of body weight, for procainamide, each 24 hs, for 2-months. Drug doses were similar to those that are administered in the medical treatment of humans; in psychotic and maniacs dysfunctions for chlorpromazine and those that were used for the treatment of cardiac arrhythmias for procainamide.
After seven days of the last intramuscular injection female mice were bled from the orbital sinus to analyze the presence of anti-lipidic particles antibodies in the obtained sera. Using this immunization procedure, 50% of the immunized BALB/c female mice produced anti-lipidic particles antibodies.
Ten, 2-months age, BALB/c female mice were immunized by intraperitoneal injection of 1 μg of anti-lipidic particles H308 monoclonal antibody, each week, for 2-months. After seven days of the last intraperitoneal injection female mice were bled from the orbital sinus to analyze the presence of anti-lipidic particles antibodies in the obtained sera. […]

H308 monoclonal antibody = assay: Inhibition of H308 monoclonal antibody by phosphorylated haptens (liposomal-ELISA); assay type: binding, mouse; details: for inhibition of H308 monoclonal antibody reaction with lipidic particles in liposomes: hapten 0.2 to 1.0 μmol
Method: Studies on inhibition of anti-lipidic particles antibodies were carried out using liposomes as antigens and the antigen-antibody reaction was analyzed by the liposomal-ELISA method, which includes the following steps:
A) A first step of addition and incubation, in which an effective quantity of an antigen suspension is added to each one of the wells of the ELISA microtiter plate. This microtiter plate is selected among those with a high lipidic antigens binding property and said microtiter plate is incubated between 25 to 30° C. for 0.25 to 2 h.
B) A second step of addition and incubation, in which an effective quantity of a blocking solution is added to each one of the wells of the ELISA microtiter plate with a high lipidic antigens binding property, and said microtiter plate being incubated at a temperature between 25 to 30° C. for 0.25 to 2 h.
C) A step of elimination of blocking solution, preferably by suction, avoiding that microtiter plate becomes dry when blocking solution is eliminated, because liposomal antigens can be damaged.
D) A step of inhibition of the antibody porter, in which the antibody porter is incubated with a chemical substance, or hapten, that will inhibit the active site that recognizes the antigen in the antibody porter.
E) A third step of addition and incubation, in which an effective quantity of the antibody porter inhibited by the hapten was quickly added, to avoid that microtiter plate becomes dry, to each one of the wells using an antibody porter dilution from 1:5 to 1:1000 into blocking solution. This microtiter plate being incubated for 0.25 to 2 h at a temperature between 25 to 30° C.
F) A first step of washing, in which the microtiter plate is washed with the blocking solution, preferably repeating 4-times and avoiding that microtiter plate becomes dry when eliminating the blocking solution.
G) A fourth step of addition and incubation, in which an effective quantity of a second antibody is added to each one of the wells of microtiter plate. This plate is incubated in the darkness for 0.25 to 2 h at a temperature between 25 to 30° C. Second antibody is selected preferably among antibodies from a different specie to that of the antibody porter and they can be anti-Fc of human IgG, IgA and IgM or of the animal in study, or antibodies anti-Fc of IgM or of IgG depending on the nature of the monoclonal antibody when this is the antibody porter. Second antibody is used in a final dilution into blocking solution between […] and 1:3500 and it is conjugated to an enzyme preferably to peroxidase.
H) A second step of washing, in which the microtiter plate is washed with the blocking solution, preferably repeating 4-times and avoiding that microtiter plate becomes dry when eliminating the blocking solution.
I) A fifth step of addition and incubation, in which an effective quantity of the peroxidase sustrates is added to each one of the wells and this microtiter plate is incubated for 0.1 to 0.5 h at a temperature between .35 and 40° C., stopping the peroxidase reaction by adding an effective quantity of sulfuric acid.
J) A step of analysis, in which microtiter plate is analyzed using a reading device for ELISA plates, preferably at 492 nm.
In a specific embodiment, the hapten solution is obtained dissolving hapten in a buffer solution at pH between 7.0 and 7.4, in a relationship from 0.1 to 10 mmoles of hapten per liter of buffer solution.
Costar microtiter plates, with 96 flat-bottom wells with a high lipidic antigens binding property (Costar Co. Cambrige, USA) were coated by the addition to each one of the wells of 100 μl of liposomes made from egg-yolk phosphatidylcholine:phosphatidate (2:1 molar ratio) in Tris-NaCl buffer (10 mM, 1 mM) pH 7, containing 0.1 μmol of phosphatidate, and treated with 5 mM CaCl2 to induce lipidic particles formation. Microtiter plates were incubated at room temperature for 1 h and they were blocked for 1 h at room temperature in a similar way as was described in Example 1. […]

SMILES: CCN(CC)CCCC(C)Nc1ccnc2cc(Cl)ccc12 (stereo not drawn) [chloroquine]
- reversion of lipidic particles and cellular aggregation caused by chlorpromazine (Ag4 mouse myeloma cells [1]): reverted
- change in liposomal aggregation and liposomal bilayers complexity, stabilizer drug alone [2]: do not produce any change
- concentration effective in stabilizing lipidic bilayers [3]: 0.1 µM
- lipidic particles formation and liposomal aggregation, simultaneous incubation with chlorpromazine [3]: there were not lipidic particles formation neither liposomal aggregation
- reaction of stabilized liposomes with H308 monoclonal antibody [3]: do not react with H308 monoclonal antibody
- reversion of lipidic particles and liposomal aggregation caused by chlorpromazine [4]: reverted
- reaction of stabilized Ag4 cells with H308 monoclonal antibody (Ag4 mouse myeloma cells [5]): do not react with the H308 monoclonal antibody
- development of lipidic particles in Ag4 cellular membranes (Ag4 mouse myeloma cells [5]): do not develop lipidic particles with chlorpromazine
- therapeutically effective quantity (BALB/c female mice [6]): 2.5 mg/kg

SMILES: CN(C)CCCN1c2ccccc2Sc2ccc(Cl)cc21 [chlorpromazine]
- increase in SSC and FSC values (lipidic particles and liposomal aggregation) ([3]; 0.2 mM): 100 fold
- SSC values ([3]; graph B, FIG. 16, presence of lipidic particles): higher than 1000 units
- pathology developed in BALB/c female mice (BALB/c female mice [7]): development of a pathology similar to the human antiphospholipid syndrome secondary to systemic lupus erythematosus
- immunized BALB/c female mice that produced anti-lipidic particles antibodies (BALB/c female mice [7]): 50%

SMILES: N[C@@H](COP(=O)(O)OCC(O)CO)C(=O)O (stereo partly drawn) [glycerolphosphorylserine]
- inhibition of H308 monoclonal antibody reaction with lipidic particles in liposomes (H308 monoclonal antibody): do not cause any inhibition

SMILES: C[N+](C)(C)CCOP(=O)(O)O [phosphorylcholine]
- absorbance at 492 nm of H308 immunoreaction (H308 monoclonal antibody; 0.6 μmoles of hapten): 0.06
- inhibition in immunoreaction of H308 monoclonal antibody (H308 monoclonal antibody; 0.6 μmoles of hapten, with regard to reaction in absence of hapten): 82%

SMILES: NCCOP(=O)(O)O [phosphorylethanolamine]
- inhibition of H308 monoclonal antibody reaction with lipidic particles in liposomes (H308 monoclonal antibody): do not cause any inhibition

SMILES: NC(COP(=O)(O)O)C(=O)O (stereo not drawn) [phosphorylserine]
- inhibition of H308 monoclonal antibody reaction with lipidic particles in liposomes (H308 monoclonal antibody): do not cause any inhibition

SMILES: CCN(CC)CCNC(=O)c1ccc(N)cc1 [procainamide]
- pathology developed in BALB/c female mice (BALB/c female mice [7]): development of a pathology similar to the human antiphospholipid syndrome secondary to systemic lupus erythematosus
- immunized BALB/c female mice that produced anti-lipidic particles antibodies (BALB/c female mice [7]): 50%

SMILES: NCCCCNCCCN [spermidine]
- reversion of lipidic particles and cellular aggregation caused by chlorpromazine (Ag4 mouse myeloma cells [1]): reverted
- change in liposomal aggregation and liposomal bilayers complexity, stabilizer drug alone [2]: do not produce any change
- concentration effective in stabilizing lipidic bilayers [3]: 5 µM
- lipidic particles formation and liposomal aggregation, simultaneous incubation with chlorpromazine [3]: there were not lipidic particles formation neither liposomal aggregation
- reaction of stabilized liposomes with H308 monoclonal antibody [3]: do not react with H308 monoclonal antibody
- reversion of lipidic particles and liposomal aggregation caused by chlorpromazine [4]: reverted
- reaction of stabilized Ag4 cells with H308 monoclonal antibody (Ag4 mouse myeloma cells [5]): do not react with the H308 monoclonal antibody
- development of lipidic particles in Ag4 cellular membranes (Ag4 mouse myeloma cells [5]): do not develop lipidic particles with chlorpromazine
- development of mice pathology induced by H308 monoclonal antibody (BALB/c female mice [6]; as chlorhydrate, 1 mg/Kg intraperitoneal each 24 hs, two months): results similar to those described with chloroquine
- therapeutically effective quantity (BALB/c female mice [6]): 1 mg/kg
